For 85 compounds, melting point results are on record in a melting point compilation (Tetko et al.; mined from patent text by program, amines drawn as free bases though some values may be those of a salt).

Broadly, the melting point is the temperature, or range, at which the solid turns liquid.

Molecules are shown by their SMILES. Bounds are passed on as bounds.

The compound `COC(=O)c1ccc(CCCOCCCCCCNCC(O)c2ccc(O)c(CO)c2)cc1` (stereo not given) gave a melting point of 43 to 45 °C.

For `COC(=O)CC(C#Cc1cccc(-c2nnc(C)o2)c1)c1ccc(OC)c(OC2CCCC2)c1` (racemic), the melting point was 104 to 105 °C.

For `O=C(N[C@@H](CO)C(=O)NCCCCOC1CCCCC1)c1ccc(C(=O)c2cccnc2)cc1`, the melting point fell in the range of 55 to 61 °C.

In turn, `O=S1(=O)c2cccc3cccc(c23)N1CCN1CCC(CN2CCc3[nH]c4ccc(F)cc4c3C2)CC1` had a melting point of 228 °C.

`CC(=O)Nc1ccc(N)c2c1C(=O)C(O)(c1ccc(C(C)C)cc1O)C2=O` (stereo not given) gave a melting point of 278 to 280 °C.

`COc1cc(CN2C(=O)C3(COc4cc5c(cc43)OCCO5)c3ccccc32)cc(OC)c1` (stereo not given) had a melting point of 192 to 195 °C.

`COc1cc2c(Nc3ccc(Sc4ccccn4)cc3)c(C#N)cnc2cc1N1CCC(N2CCCC2)CC1` had a melting point of 182 to 184 °C.

As to `CS(=O)(=O)N1C(=O)[C@H](C2CC2)[C@H]2[C@@H]1CCN2C(=O)OCc1ccccc1` (relative stereo), the melting point was in the range of 144 to 150 °C.

In turn, `C=CCn1c(Br)c(C[C@H](NC(C)=O)C(=O)OC)c2c(Br)c(OC)c(Br)cc21` had a melting point of 191 to 192 °C.

For the compound `O=C1CC[C@@H]2c3ccc(Cl)cc3CCC2N1` (stereo not given in full), the melting point was found to be 242 °C.

On to `NS(=O)(=O)CS(=O)c1ccc(Cl)c(Cl)c1` (stereo not given), for which the melting point is 205 to 207 °C.

Consider `CC(=O)NC[C@H]1CN(c2cc(F)c(N3CCC(n4ncn(C)c4=S)CC3)c(F)c2)C(=O)O1`, for which the melting point was 168 to 170 °C.

The compound `CCOC(=O)CN(c1ccncc1F)n1ccc2ccccc21` returned a melting point of 86 to 87 °C.

Take `COC(=O)C(NS(=O)(=O)c1ccc(-c2ccc(NC(=O)c3cc4c(OC(C)C)cccc4o3)cc2)cc1)C(C)C` (stereo not given): the melting point fell in the range of 226 to 229 °C.

The compound `Cc1cc(SC2=C(O)CC(CCc3cc(Cl)c(N)c(Cl)c3)(C(C)C)OC2=O)c(C(C)(C)C)cc1N` (stereo not given) came in with a melting point of 103 to 107 °C.

The compound `Nc1cc(OCc2ccccc2)nc(N)n1` showed a melting point of 195 °C.

In turn, `COC(=O)c1ccc([N+](=O)[O-])cc1S(=O)(=O)Cl` showed a melting point of 86 to 88 °C.

With `COc1ccc(-c2cc(-c3nccs3)c(=O)n(C)c2-c2ccncc2)cc1`, the melting point lay within 224 to 225 °C.

`CC(C)CCCC(C)C1CCC2C3CC=C4CC(N)CCC4(C)C3CCC12C` (stereo not given) yielded a melting point of 92 to 94 °C.

`CCOC(=O)Cc1cc2c(N=C3SC[C@@H]4Cc5ccccc5CN34)cccc2cn1` displayed a melting point of 112 °C.

As to `COC(=O)C1CCCn2c(=O)n(CCCl)c(=O)n21` (stereo not given), the melting point was 94 to 95 °C.

As for `FC(F)(F)c1ccc(-c2cc(Oc3cccc4ccncc34)ncn2)cc1`, the melting point lay within 194 to 195 °C.

In turn, `CCCCc1cc(C(=O)Nc2nnn[nH]2)nc(-c2ccc(N)cc2)c1` yielded a melting point of more than 300 °C.

In the case of `COc1cccc(C(=O)Nc2ccc(CN3C(=O)[C@H]4CCC[C@H]4N(C(=O)CN4C(=O)c5ccccc5C4=O)c4ccccc43)cc2)c1` (relative stereo), the melting point lay within 250 to 251 °C.

`Nc1ccc(C(=O)OCCOC(=O)CC[C@@H](C(=O)O)n2c3ccccc3c3ccccc32)cc1` showed a melting point of 65 °C.

`O=C(NCc1ccc(Cl)cc1)c1cnc2cc(C(F)(F)F)c(SCc3ccccc3)cc2c1O` registered a melting point of 185 to 188 °C.

On to `C(=C\c1nc(COc2ccc(CCCCCCn3ccnc3)cc2)co1)/c1ccccc1`, for which the melting point lay within 108 to 109 °C.

`Cc1cc(COc2c(Cl)cc(C=O)cc2Cl)oc(=O)c1` returned a melting point of 180 °C.

In the case of `CC1CC(C)(C)c2cccc(NC(=O)c3cn(C)nc3C(F)F)c21` (stereo not given), the melting point lay within 131 to 134 °C.

The compound `O=C1CCc2c(Cl)sc(Cl)c21` registered a melting point of 168 to 170 °C.

For `CCCN=C(N)Nc1ccnc(SC)n1`, the melting point lay in the range of 177 to 178 °C.

Compound `Nc1nc2[nH]c(CCCCc3ccc(C(=O)N[C@@H](CCC(=O)O)C(=O)O)o3)cc2c(=O)[nH]1` displayed a melting point of 174 to 175 °C.

Compound `COc1cc2c(-c3cc4cc(F)cnc4[nH]3)cn(CCN3CCOCC3)c2cc1OC` yielded a melting point of 205 to 210 °C.

`CCCCCCCCCCCCCCCC(=O)N[C@@H](Cc1ccc(O)cc1)C(=O)OC` yielded a melting point of 100 °C.

Regarding `CCOC(=O)C(c1c(F)cc(C#N)cc1F)c1cc(C)c(C(=O)c2ccc(Cl)cc2)n1C` (stereo not given), the melting point is 155 to 156 °C.

In turn, `N#CN1CCC(C2(O)c3ccccc3CCc3ccc(F)cc32)CC1` (stereo not given) gave a melting point of 250 °C.

As to `CC(C)(CO)Cc1cccc(C(O)c2cccc(CC(C)(C)CO)c2)c1`, the melting point was in the range of 98 to 99 °C.

As to `COc1ccc(-c2cn3c(n2)-c2ccccc2CC3)cc1`, the melting point is 179 to 181 °C.

`C=C(C)COc1ccc(C(=O)C=Cc2c[nH]c3ccccc23)c(O)c1` gave a melting point of 29 to 30 °C.

Consider `CN(C(=O)CN(C(=O)CNC(=O)OC(C)(C)C)c1ccccc1OCc1ccccc1)c1ccccc1`, for which the melting point lay in the range of 168 to 170 °C.

`O=C(Nc1cccc2c(=O)cc(C(=O)O)oc12)c1ccc2c(c1)CC(CCCc1ccccc1)O2` (stereo not given) returned a melting point of 184 to 185 °C.

The compound `CCOC(=O)c1cnc(CCOC)nc1NCc1ccc(-c2ccccc2-c2nnnn2C(c2ccccc2)(c2ccccc2)c2ccccc2)cc1` came in with a melting point of 128 to 130 °C.

On to `Cc1cn(C2CCCCC2)c(=O)nc1N`, for which the melting point is 205 to 207 °C.

`CCC(=O)C(CCCOc1ccc(OCCCc2c(CC)n[nH]c2CC)cc1)C(=O)CC` returned a melting point of 135 to 136 °C.

Compound `CC(=O)OCc1c(-c2cc(Nc3cc4n(n3)CCN(C3COC3)C4)c(=O)n(C)n2)cccc1-n1ncc2cc(C(C)(C)C)cc(F)c2c1=O` showed a melting point of 180 to 185 °C.

Take `OCc1ccccc1-c1cc(-c2ccccc2)on1`: the melting point is 68 to 70 °C.

As to `Cc1ccc([C@@H]2c3c(C)c(N4C(=O)CC(c5ccccc5)CC4=O)c(C)c(C)c3OC2(C)C)cc1`, the melting point was 118 to 122 °C.

In turn, `CCC(NC(=O)c1sc(NC(=O)c2ccccc2)nc1C)c1ccccc1` (stereo not given) showed a melting point of 87 to 89 °C.

As for `CCCC(O)c1cc(C)cc(C)c1C=CC1OCC(C)(C)CO1` (stereo not given), the melting point was 56 to 59 °C.

Compound `CCOC(=O)C(=NNc1ccccc1CC)C(=O)OCC` returned a melting point of 33 to 34 °C.

Take `CC(C)(C)OC(=O)N(CCCn1ncc2cc(C(=O)O)ccc21)c1ccccn1`: the melting point fell in the range of 129 to 131 °C.

Consider `CCn1cc(C(=O)O)c(=O)c2cc(F)c(F)c(C)c21`, for which the melting point lay within 219 to 221 °C.

With `c1ccc(-c2nc3ccccc3s2)nc1`, the melting point was in the range of 133 to 134 °C.

Compound `Cc1cc(OC(=O)c2ccccc2)ccc1OCc1ccccc1` returned a melting point of 118 to 119 °C.

`CCCc1c(OCCCCCCc2ccc(C(=O)c3cccc(C(=O)O)c3)cc2CCC(=O)O)ccc2c1OCCC2=O` came in with a melting point of 137 to 139 °C.

Turning to `CC(C)(C)OC(=O)NC[C@H]1CN(c2ccc3c(c2)CN(C(=O)OCc2ccccc2)CC3)C(=O)O1`, the melting point is 135 to 137 °C.

`O=c1oc2c(c(O)c1C(c1ccccc1)C1CC1)CCCCC2CCC1OCCO1` (stereo not given) came in with a melting point of 68 to 76 °C.

`O=c1c2ccccc2oc2cccn12` came in with a melting point of 129 to 130 °C.

As to `COc1ccc2nc3c(cc2c1)c(C#N)nn3C`, the melting point was 190 to 191 °C.

In the case of `Cc1[nH]c2ccccc2c1C(=O)CCn1ccnc1`, the melting point fell in the range of 196 to 197 °C.

For `Cc1oc(-c2ccccc2)nc1COc1ccc(/C=C/CO)cc1`, the melting point lay in the range of 134 to 135 °C.

For `CN(C)C=CC(=O)c1ccc(C(=O)N2Cc3cccn3Cc3ccccc32)cc1`, the melting point fell in the range of 203 to 205 °C.

`CCCCC(Cc1ccc(OCCNC(=O)c2ccc(-c3ccc(C=O)cc3)cc2)cc1)C(=O)O` (stereo not given) came in with a melting point of 122 to 124 °C.

In the case of `CCOC(=O)C1(NC(C)=O)CC2c3cc(C)ccc3Oc3ccccc3N2C1=O` (stereo not given), the melting point lay within 104 to 108 °C.

Consider `CC(C)c1nnn(-c2c(Cl)cccc2Cl)c1CO`, for which the melting point lay within 154 to 155 °C.

For the compound `O=C1N(Cc2ccccc2C(F)(F)F)c2ccccc2C12COc1cc3[nH]ncc3cc12` (stereo not given), the melting point was in the range of 124 to 126 °C.

`O=C(NC1CC1)c1ccc(N2CCNCC2)c(F)c1` came in with a melting point of 141 to 143 °C.

Consider `Cc1cc(Br)ccc1N1C(=O)c2ccc(Cl)cc2C1=O`, for which the melting point lay in the range of 210 to 212 °C.

For the compound `Cc1ncc(CN2CC=C(c3ccccc3)CC2)c(N)n1`, the melting point lay within 165 to 166 °C.

On to `Nn1cccc1C(=O)c1ccccc1F`, for which the melting point fell in the range of 44 to 47 °C.

The compound `Cc1[nH]c2ccnn2c(=O)c1CCO` showed a melting point of 225 to 226 °C.

For the compound `CC(C)S(=O)(=O)NC(=O)c1cccc(N)c1`, the melting point fell in the range of 190 to 193 °C.

In turn, `CCOC(=O)c1cn2c(cc(Cl)c3ccccc32)n1` came in with a melting point of 169 to 170 °C.

`CCCn1c(=O)cc(Cl)n(Cc2ccc(-c3ccccc3C#N)cc2)c1=O` showed a melting point of 146 to 147 °C.

`O=C(NC1CC1)c1ccc(-c2ccc3nnn(Cc4ccc5ncccc5c4)c3n2)cc1Cl`: the melting point fell in the range of 197 to 199 °C.

As to `CC(C)(C)c1cc(=O)o[nH]1`, the melting point lay within 110 to 115 °C.

Compound `CCSc1cccc(C)c1S(=O)(=O)NC(C)(C)C` yielded a melting point of 94 °C.

Turning to `O=[N+]([O-])c1cc(Cl)c([N+](=O)[O-])c(Cl)c1`, the melting point lay in the range of 109 to 112 °C.

Consider `CS(=O)c1ccc(CSc2nnc(-c3ccc4ncsc4c3)o2)cc1C(F)(F)F` (stereo not given), for which the melting point lay in the range of 179 to 180 °C.

The compound `COc1ccc(C=CC(=O)N2CCN(c3nc(N)c4cc(OC)c(OC)cc4n3)CC2)cc1OC` displayed a melting point of 140 °C.

With `CC(N=Cc1ccc(O)cc1)c1ccccc1` (single isomer, unassigned; (-)), the melting point lay in the range of 176 to 178 °C.

For the compound `CCCCCCCCc1ccc(CCC(CC)(COC(C)=O)NC(C)=O)cc1` (stereo not given), the melting point is 107 to 109 °C.

Take `Fc1ccccc1C1=NCC(=S)Nc2ccc(I)cc21`: the melting point lay in the range of 242 to 244 °C.

In turn, `C=CCN1C2CCC1C1CCC2N1C(c1ccc(C(=O)N2CCCC2)cc1)c1cccc(OC)c1` (stereo not given) showed a melting point of 46 to 48 °C.

For the compound `c1ccc(C(Cc2nc(COc3ccc(CCCn4ccnc4)cc3)co2)c2ccccc2)cc1`, the melting point was 79 to 80 °C.
